In patent publication US9504248B2, “Antimicrobial composition” (Rohm and Haas Company, priority 2011, dated 2016):
In brackets after ≈: the same amount, converted by molar mass. Like-named read-outs stand apart in the source and are kept apart here.

Tests used:
Format in all cases: cell-based
[1] = test system: Escherichia coli (10536 strain); assay: 15 second contact suspension kill assay (Example 1 protocol, also Example 3); details: Escherichia coli, 15 s, read-out: Minimum biocidal concentration (MBC)
Text: The efficacies of antimicrobial agents can be usefully compared by determining the Minimum Biocidal Concentration (MBC). The MBC is defined as the lowest absolute concentration of the particular active that provides complete kill (zero bacterial growth). The differing behaviours of inhibitory antimicrobtals in Isolation and mixtures have been widely explored using the concept of the Fractional Concentration and Fractional Inhibitory Concentration (FIC). See for instance J R W Lambert and R Lambert, J. Appl. Microblol 95, 734 (2003); T. Jadavji. C G Prober and R Cheung. Antimicrobial Agents and Chemotherapy 26, 91 (1984), and WO 2004/006876. These parameters can be defined as follows:
[formula] [formula] By analogy the Fractional Biocidal Concentration (FBC) is given by:
Antimicrobial efficacy is tested against a representative pathogenic bacterial organism, Gram negative Escherichia coli. Concentrations of actives are expressed in terms of the percentage weight/volume (% w/v) throughout Example 1.
An overnight culture of Escherichia coli (10536 strain) was prepared in 50 ml total volume of TSB broth, grown for ca. 18 hrs at 37° C. and shaken at 150 rpm. 1 ml of this overnight E. coli culture was transferred to 50 ml of fresh TSB broth and incubated at 37° C. at 150 rpm for ca. 4 hours. This culture was separated into equal volumes and centrifuged at 4000 rpm for 15 minutes, washed with sterile saline (0.85% NaCl), centrifuged once more and re-suspended in saline to give a final concentration of 0.8 OD620 equivalent to about 10^8 cells per milliliter for this particular organism. Here, OD620 indicates the absorbance of a sample in a cuvette of 1.0 cm path length at a wavelength of 620 nm. This bacterial stock was used for assaying against antimicrobial actives (in triplicate).
The following assay describes the testing of 8 materials using 6 dilutions across half of a 96-well micro titre plate (MTP). Using this approach it is possible to assay 16 actives (without replicates) with one full dilution plate, replicating this set up in two halves of the plate columns, 1-6 and 7-12.
1M solutions of the test actives were prepared in dimethylsulphoxide (DMSO).
Aliquots (270 μl) of the materials at 1.11 times the final concentration were dispensed into the wells of the MTP along one column (A1-H1). This MTP was labelled as the “Screening plate”.
In another MTP, labelled as the “Dilution plate”, 270 μl of D/E neutralising solution from DIFCO Composition was added to column 1. The composition of the neutralising solution was as follows: pancreatic digest of casein, 5.0 g/L; Yeast Extract, 2.5 g/L; Dextrose, 10 g/L, sodium thioglycollate, 1.0 g/L, sodium thiosulphate, 6.0 g/L; sodium bisulphite, 2.5 g/L; Polysorbate 80, 5.0 g/L; lecithin 7.0 g/L; bromocresol purple, 0.02 g/L with a pH in the range 7.6±0.2.
270 μl of tryptone diluent solution was added to all the remaining wells of the Dilution MTP (columns 2-6).
Bacterial stock (30 μl) was then added to the prepared 270 μl of the solution of actives in the Screening Plate and mixed, using a multichannel pipette with 8 tips to aspirate and dispense the same volume of bacterial stock in parallel to 8 wells in rows A-H. After a contact time of 15 seconds, the mixtures were quenched by transferring 30 μl volumes of the mixtures into the 270 μl D/E neutralising solution in the prepared dilution plate, using aspiration to mix. After exactly 5 minutes in the DIE neutralising solution, 30 μl volumes were transferred from column 1 to column 2 of the Dilution MTP and mixed, before transferring further 30 μl volumes from column 2 into column 3. This process was repeated serially diluting the bacteria across the plate to column 6.
30 μl volumes from each well in the Dilution MTP were transferred onto pre-labelled segment of Tryptone Soya Agar (TSA) plates starting from the lowest bacterial concentration (highest dilution, column 6) to the highest bacterial concentration (column 1).

[2] = test system: Escherichia coli (E. coli - ATCC #10536); assay: Automated assessment of efficacy in surfactant base, 15 seconds exposure, OD450/OD590 readout (Example 4); details: for MBC: Escherichia coli, ATCC10536, 15 s, in 2.85% sodium cocoyl glycinate + 1.85% sodium lauroamphoacetate solution at pH 10, 15 s; for antimicrobial action in combination with terpineol in the presence of surfactant (in words): cocoyl glycinate and lauroamphoacetate
Method: In these examples, the efficacy of combinations of monosubstituted phenols and terpineol were tested in a surfactant cleansing formulation comprising 2.85% sodium cocoyl glycinate and 1.85% sodium lauroamphoacetate. This corresponds to a 50% in use dilution with water of a typical neat formulation containing 5.7% cocoyl glycinate and 3.7% % sodium lauroamphoacetate during hand washing. Solutions were prepared such that the concentrations of the surfactant components and test actives were 1.1 times the final desired concentration in order to allow for dilution with the bacterial inoculum in the test. The solutions were manually adjusted to pH 10.0 by dropwise addition of sodium hydroxide solution, as measured with a pH meter at ambient temperature. Solutions of the monosubstituted phenols and/or terpineols were prepared at a maximum of 24 hours before testing. The same terpineol was used as in Example 1.
The efficacy of the combinations of the present invention was determined against the same bacterium as in Example 1, Escherichia coli (E. coli—ATCC #10536), at a concentration of approximately 1×10^8 bacteria per mL.
Tests were conducted using standard microtiter plate assays using an automated liquid handling system. 270 μl of the surfactant test solution was pipetted into each well of the microtitre plate (Nunc F Gamma Irradiated 96F untreated microtitre plates of clear polystyrene) and 30 μl of the bacterial suspension was then added. After exactly 15 seconds of bacterial exposure, a 30 μl volume of bacterial cells was withdrawn and transferred to 270 μl of D/E quench solution. After 5 minutes in the D/E quench, the optical density (OD) was measured for each plate in turn at two specific wavelengths (450 nm and 590 nm). These provide a dual check of antimicrobial activity, as the OD450 reading is specific for the yellow colour of D/E quench when bacterial growth is observed, whereas OD590 is specific for the initial purple colour of the D/E quench which is retained if no bacterial growth is observed. After the time zero OD measurements, plates were then incubated at 37° C. overnight (16 hours) before repeating the OD measurements. Delta OD values were calculated by subtracting […] at time=16 hours. Bacterial growth is observed as an increase in OD450 and a decrease in OD590. To identify antibacterially efficacious systems (those preventing appreciable bacterial growth after incubation), the following threshold changes in OD readings have been adopted: if (1). OD450 increases by less than 0.2 absorbance unit (AU) on incubation and (2). OD590 decreases by less than 0.35 AU on incubation. Conversely, where OD450 increases by more than […] after incubation, corresponding to a colour shift from purple to yellow, the test system allows bacterial growth and is not deemed efficacious. Four replicate measurements in the same plate have been made for each test system. The number of replicate wells showing either bacterial growth or no growth is also readily assessed by eye by following the colour change. Thymol and terpineol were tested both alone and in combination for comparison purposes.
In some selected cases, the combinations were also tested at the weight ratio 1:1.
The surfactants used are not themselves antimicrobially active against E. coli at the concentrations employed as shown by the results of Ex. (4:1) in Table 24. Thus, any antimicrobial efficacy can be ascribed to the monosubstituted phenols and/or terpineol. Table 25 presents MBC-values determined similarly as described for Example 1.

[3] = test system: Escherichia coli (E. coli - ATCC #10536); assay: High resolution MBC synergy assay in phosphate buffer containing 35% dipropylene glycol, 15 seconds (Example 2); details: 15 s, complete kill; phosphate buffer with 35% DPG
Method: In this Example, a wide range of combinations of chemicals was tested by conducting high resolution MBC assays of monosubstituted phenols in the presence of various concentrations of terpineol. […] High resolution MBCs were determined by adding varying amounts of microbicide to one column of a microtiter plate and doing subsequent […] dilutions using an automated liquid handling system to obtain a series of endpoints ranging from 0.002% to 1% of the test compound. The MBC plate was inoculated one column at a time with the test microorganism. An aliquot of the inoculated well was transferred at 15 seconds to a plate containing a neutralizing agent (D/E Neutralizing Broth), mixed and held for 5 minutes before being transferred to a growth plate containing trypticase soy broth (TSB). The TSB plate was incubated at 37° C. and read for the presence/absence of growth at 24 hours.
This microorganism is representative of natural contaminants in many consumer and industrial applications.

[4] = component alone, lowest tested concentration giving zero bacterial survival after 15 s, upper boundary

Oc1ccccc1Cc1ccccc1 [2-benzylphenol]
MBC [1, 4]: 500 µg/mL (≈ 2.71 mM) | MBC [2]: > 2000 µg/mL | antimicrobial action in combination with terpineol in the presence of surfactant (in words) [2]: enhanced antimicrobial action | MBC of first component alone (MBCA; Ca at Cb = 0) [3]: 0.6 weight %

Oc1ccccc1C1CCCC1 [2-cyclopentylphenol]
MBC [1, 4]: 1000 µg/mL (≈ 6.16 mM) | MBC [2]: > 2000 µg/mL | antimicrobial action in combination with terpineol in the presence of surfactant (in words) [2]: enhanced antimicrobial action | MBC of first component alone (MBCA; Ca at Cb = 0) [3]: 0.8 weight %

CCCc1ccccc1O [2-n-propylphenol]
antimicrobial action in combination with terpineol in the presence of surfactant (in words) [2]: enhanced antimicrobial action | MBC of first component alone (MBCA; Ca at Cb = 0) [3]: 0.3 weight %

CCC(C)c1ccccc1O (stereo not drawn) [2-sec-butylphenol]
MBC [1, 4]: 500 µg/mL (≈ 3.33 mM) | MBC [2]: > 2000 µg/mL | antimicrobial action in combination with terpineol in the presence of surfactant (in words) [2]: enhanced antimicrobial action | MBC of first component alone (MBCA; Ca at Cb = 0) [3]: 0.2 weight %

CC(C)(C)c1ccccc1O [2-tert-butylphenol]
MBC [1, 4]: 500 µg/mL (≈ 3.33 mM) | MBC [2]: 1750 µg/mL | antimicrobial action in combination with terpineol in the presence of surfactant (in words) [2]: enhanced antimicrobial action | MBC of first component alone (MBCA; Ca at Cb = 0) [3]: 0.2 weight %

CCCc1cccc(O)c1 [3-n-propylphenol]
MBC [2]: 1750 µg/mL | antimicrobial action in combination with terpineol in the presence of surfactant (in words) [2]: enhanced antimicrobial action | MBC of first component alone (MBCA; Ca at Cb = 0) [3]: 0.05 weight %

Oc1ccc(Cc2ccccc2)cc1 [4-benzylphenol]
MBC [1, 4]: 500 µg/mL (≈ 2.71 mM) | MBC [2]: > 2000 µg/mL | antimicrobial action in combination with terpineol in the presence of surfactant (in words) [2]: enhanced antimicrobial action | MBC of first component alone (MBCA; Ca at Cb = 0) [3]: 0.5 weight %

Oc1ccc(C2CCCC2)cc1 [4-cyclopentylphenol]
MBC [1, 4]: 800 µg/mL (≈ 4.93 mM) | MBC [2]: > 2000 µg/mL | MBC of first component alone (MBCA; Ca at Cb = 0) [3]: 0.6 weight %

CCCc1ccc(O)cc1 [4-n-propylphenol]
MBC [1, 4]: 750 µg/mL (≈ 5.51 mM) | antimicrobial action in combination with terpineol in the presence of surfactant (in words) [2]: enhanced antimicrobial action | MBC of first component alone (MBCA; Ca at Cb = 0) [3]: 0.3 weight %

CCCCCc1ccc(O)cc1 [4-pentylphenol]
MBC [1, 4]: 250 µg/mL (≈ 1.52 mM) | MBC [2]: > 2000 µg/mL | MBC of first component alone (MBCA; Ca at Cb = 0) [3]: 1.0 weight %

CCC(C)c1ccc(O)cc1 (stereo not drawn) [4-sec-butylphenol]
MBC [1, 4]: 800 µg/mL (≈ 5.33 mM) | antimicrobial action in combination with terpineol in the presence of surfactant (in words) [2]: enhanced antimicrobial action

C/C=C/c1ccccc1O [(E)-2-(prop-1-enyl)phenol]
MBC [1]: 1500 µg/mL (≈ 11.2 mM) | antimicrobial action in combination with terpineol in the presence of surfactant (in words) [2]: enhanced antimicrobial action

CC1=CCC(C(C)(C)O)CC1 (stereo not drawn) [alpha-terpineol]
MBC of second component (terpineol) alone (MBCB; Cb at Ca = 0) [3]: 0.6 weight %
